Patent EP4722219A1 (Gan & Lee Pharmaceuticals Co., Ltd., priority 2023, dated 2024)

Columns and labels:
AR protein = molecular target: T1, AR protein (Homo sapiens, UniProt P10275, T878A); assay: AR protein degradation in LNCaP cells (Western blot); type: cell-based; settings: 8 hours; for percent AR protein degradation at a fixed concentration at 0.01 µM / Degradation of AR protein in LNCaP cells, 10 nM (%): 10 nM; for percent AR protein degradation at a fixed concentration at 0.1 µM / Degradation of AR protein in LNCaP cells, 100 nM (%): 100 nM
T1 construct: host or cells: LNCaP FGC
T1 sequence (P10275 1-920 T878A): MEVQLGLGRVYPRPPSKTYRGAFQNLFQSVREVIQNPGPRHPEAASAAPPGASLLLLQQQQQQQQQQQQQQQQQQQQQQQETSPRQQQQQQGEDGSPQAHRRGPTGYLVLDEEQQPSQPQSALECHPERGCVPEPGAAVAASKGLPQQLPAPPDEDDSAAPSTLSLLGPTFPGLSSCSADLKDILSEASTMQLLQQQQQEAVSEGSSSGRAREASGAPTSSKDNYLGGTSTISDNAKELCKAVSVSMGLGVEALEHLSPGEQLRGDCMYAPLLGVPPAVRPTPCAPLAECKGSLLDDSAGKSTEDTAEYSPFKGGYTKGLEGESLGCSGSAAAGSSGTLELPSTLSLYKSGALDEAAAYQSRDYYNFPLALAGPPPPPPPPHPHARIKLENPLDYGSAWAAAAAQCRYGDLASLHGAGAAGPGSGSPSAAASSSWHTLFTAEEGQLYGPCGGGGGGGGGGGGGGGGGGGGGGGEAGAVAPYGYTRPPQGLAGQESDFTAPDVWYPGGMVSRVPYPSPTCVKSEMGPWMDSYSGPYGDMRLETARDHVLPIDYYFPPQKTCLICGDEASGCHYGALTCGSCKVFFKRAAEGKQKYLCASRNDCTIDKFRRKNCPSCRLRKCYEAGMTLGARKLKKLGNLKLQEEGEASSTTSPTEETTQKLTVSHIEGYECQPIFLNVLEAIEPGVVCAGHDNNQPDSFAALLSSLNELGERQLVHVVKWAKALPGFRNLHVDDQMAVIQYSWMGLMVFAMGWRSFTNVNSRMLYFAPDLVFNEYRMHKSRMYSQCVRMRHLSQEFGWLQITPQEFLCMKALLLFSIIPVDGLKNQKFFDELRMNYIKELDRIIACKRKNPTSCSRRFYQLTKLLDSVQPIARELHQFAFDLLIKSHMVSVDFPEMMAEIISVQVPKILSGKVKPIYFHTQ
How it was run: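 LNCaP cells exposed to compound or solvent control for 8 h, lysed in RIPA, protein normalized by BCA. AR detected by SDS-PAGE/Western blot with infrared imaging; band grayscale normalized to GAPDH to calculate AR degradation rate.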

VCaP cells = assay: Inhibition of VCaP cell proliferation (WST-8); type: cell-based; settings: 168 hours
How it was run: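 VCaP cells seeded at 15,000/well in DMEM + 10% FBS, treated next day with nine 5-fold dilutions from 10 µM (final) at 37°C, 5% CO2. Viability read by WST-8 absorbance at 450 nm on day 9.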

Degradation of AR protein in LNCaP cells, 10 nM (%) (AR protein)	Degradation of AR protein in LNCaP cells, 100 nM (%) (AR protein)	Compound	percent AR protein degradation at a fixed concentration at 0.01 µM (AR protein)	percent AR protein degradation at a fixed concentration at 0.1 µM (AR protein)	IC50 (VCaP cells; Homo sapiens)	IC50 (VCaP cells)
		COc1cc(O[C@H]2C(C)(C)[C@H](NC(=O)c3ccc(N4CCC(C)(CN5CCC6(CCc7cc(C(=O)N[C@H]8CCC(=O)NC8=O)c(F)cc7O6)CC5)CC4)cc3)C2(C)C)ccc1C#N [A-P-31, 1'-((1-((4-((1r,3r)-3-(4-cyano-3-methoxyphenoxy)-2,2,4,4-tetramethylcyclobutyl)carbamoyl)phenyl)-4-methylpiperidin-4-yl)methyl)-N-((S)-2,6-dioxopiperidin-3-yl)-7-fluorospiro[2,4'-piperidin]-6-carboxamide]	47%	71%	3170 nM	
55%	85%	COc1cc(O[C@H]2C(C)(C)[C@H](NC(=O)c3ccc(N4CCC(CN5CCN6c7ccc(C(=O)N[C@H]8CCC(=O)NC8=O)cc7OC[C@@H]6C5)CC4)cc3)C2(C)C)ccc1C#N [A-P-67]			170 nM	
		Cn1c(=O)n(C2CCC(=O)NC2=O)c2ccc3c(c21)OCC31CCN(C2CCN(c3ccc(C(=O)N[C@H]4CC[C@H](Oc5ccc(C#N)c(Cl)c5)CC4)nn3)CC2)CC1 (stereo partly drawn) [A-P-23]	37%	14%	0.046 nM	
52%	85%	CC1(C)[C@H](NC(=O)c2ccc(N3CCC(CN4CCC5(CCc6cc(C(=O)N[C@H]7CCC(=O)NC7=O)c(F)cc6O5)CC4)CC3)nc2)C(C)(C)[C@H]1Oc1ccc(C#N)c(C(F)(F)F)c1 [A-P-45, 1'-((1-(5-(((1R,3R)-3-(4-cyano-3-(trifluoromethyl)phenoxy)-2,2,4,4-tetramethylcyclobutyl)carbamoyl)pyridin-2-yl)piperidin-4-yl)methyl)-N-((S)-2,6-dioxopiperidin-3-yl)-7-fluorospiro[chroman-2,4'-piperidin]-6-carboxamide]			300 nM	
66%	48%	N#Cc1ccc(O[C@H]2CC[C@H](NC(=O)c3ccc(N4CCC(N5CC6(CCC7(CC6)COc6c7ccc7c6CN(C6CCC(=O)NC6=O)C7=O)C5)CC4)nn3)CC2)cc1Cl (relative stereo) [A-P-1, N-((1r,4r)-4-(3-chloro-4-cyanophenoxy)cyclohexyl)-6-(4-(7'-(2,6-dioxopiperidin-3-yl)-6'-oxo-7',8'-dihydro-2'-H,6'-H-dihydro[azetidine-3,1'-cyclohexane-4',3"-furo[2,3-e]isoindol]-1-yl)piperidin-1-yl)pyridazine-3-carboxamide]			0.026 nM	
45%	63%	COc1cc(O[C@H]2C(C)(C)[C@H](NC(=O)c3ccc(N4CCC(C)(CN5CCC6(CCc7cc(C(=O)N[C@H]8CCC(=O)NC8=O)c(F)cc7O6)CC5)CC4)nn3)C2(C)C)ccc1C#N [A-P-48, 1'-((1-(6-(((1R,3R)-3-(4-cyano-3-methoxyphenoxy)-2,2,4,4-tetramethylcyclobutyl)carbamoyl)pyridazin-3-yl)-4-methylpiperidin-4-yl)methyl)-N-((S)-2,6-dioxopiperidin-3-yl)-7-fluorospiro[chroman-2,4'-piperidin]-6-carboxamide]			330 nM	
12%	46%	N-(1r,4r)-4-(3-chloro-4-cyanophenoxy)cyclohexy 1)-6-(4-(7-(2,6-dioxopiperidin-3-yl))-6-oxo-7,8-dihydro-2H,6H-dipyrido[2,3-e]isoindole-3,1'-cyclohexane-4',4‴-piperidin]-1"-yl)pyridazine-3-carboxamide [A-P-32]				1230 nM
		Cn1c(=O)n(C2CCC(=O)NC2=O)c2ccc3c(c21)OCC31CCN(C2CC3(CCN(c4ccc(C(=O)N[C@H]5CC[C@H](Oc6ccc(C#N)c(Cl)c6)CC5)nn4)CC3)C2)CC1 (stereo partly drawn) [A-P-25]	58%	31%	0.14 nM	
41%	78%	COc1cc(O[C@H]2C(C)(C)[C@H](NC(=O)c3ccc(N4CCC(CN5CCC6(CCc7cc(C(=O)N[C@H]8CCC(=O)NC8=O)c(F)cc7O6)CC5)CC4)cc3)C2(C)C)ccc1C#N [A-P-30]			1000 nM	
		COc1cc(O[C@H]2C(C)(C)[C@H](NC(=O)c3ccc(N4CCC(N5CCC6(CC5)COc5c6ccc6c5n(C)c(=O)n6C5CCC(=O)NC5=O)CC4)cc3)C2(C)C)ccc1C#N (stereo partly drawn) [A-P-29]	6%	-27%	19 nM	
		C[C@H]1CC2(CCN(c3ccc(C(=O)N4CCC(CN5CCC6(CCc7cc(C(=O)N[C@H]8CCC(=O)NC8=O)c(F)cc7O6)CC5)CC4)cc3)CC2)CN1c1ccc(C#N)c(Cl)c1 [A-P-35, 1'-((1-(4-((S)-2-(3-chloro-4-cyanophenyl)-3-methyl-2,8-diazaspiro[4.5]decan-8-yl)benzoyl)piperidin-4-yl)methyl)-N-((S)-2,6-dioxopiperidin-3-yl)-7-fluorospiro[chroman-2,4'-piperidin]-6-carboxamide]	61%	70%	4 nM	
		C[C@H]1CC2(CCN(c3ccc(N4CCC(CN5CCC6(CCc7cc(C(=O)N[C@H]8CCC(=O)NC8=O)c(F)cc7O6)CC5)CC4)cc3)CC2)CN1c1ccc(C#N)c(Cl)c1 [A-P-42, 1'-((1-(4-((S)-2-(3-chloro-4-cyanophenyl)-3-methyl-2,8-diazaspiro[4.5]decan-8-yl)phenyl)piperidin-4-yl)methyl)-N-((S)-2,6-dioxopiperidin-3-yl)-7-fluorospiro[chroman-2,4'-piperidin]-6-carboxamide]	44%	77%	> 10000 nM	

Compound	Degradation of AR protein in LNCaP cells, 10 nM (%) (AR protein)	Degradation of AR protein in LNCaP cells, 100 nM (%) (AR protein)	percent AR protein degradation at a fixed concentration at 0.01 µM (AR protein)	percent AR protein degradation at a fixed concentration at 0.1 µM (AR protein)	IC50 (VCaP cells; Homo sapiens)	IC50 (VCaP cells)
C[C@H]1CC2(CCN(c3ccc(C(=O)N4CCC(CN5CCN6c7ccc(C(=O)N[C@H]8CCC(=O)NC8=O)cc7OC[C@@H]6C5)CC4)cc3)CC2)CN1c1ccc(C#N)c(Cl)c1 [A-P-69]	52%	79%			1320 nM	
COc1cc(O[C@H]2C(C)(C)[C@H](NC(=O)c3ccc(N4CCC5(CC4)CC(N4CCC6(CC4)COc4cc7c(cc46)n(C)c(=O)n7C4CCC(=O)NC4=O)C5)cc3)C2(C)C)ccc1C#N (relative stereo) [A-P-21]	52%	55%			2 nM	
(S)-3-((1-(4-(((S)-2-(3-chloro-4-cyanophenyl)-3-methyl-2,8-diazaspiro[4.5]decan-8-yl)phenyl)piperidin-4-yl)methyl)-N-(((S)-2,6-dioxopiperidin-3-yl)-1,2,3,4,4a,5-hexahydrobenzo[b]pyrazi no[1,2-d][1,4]oxazine-8-carboxamide [A-P-57]	39%	76%				3020 nM
C[C@H]1CC2(CCN(c3ccc(C(=O)N4CCC(CN5CCN6c7ccc(C(=O)N[C@H]8CCC(=O)NC8=O)cc7OC[C@H]6C5)CC4)cc3)CC2)CN1c1ccc(C#N)c(Cl)c1 [A-P-68]	51%	84%			4.5 nM	
